Laboratory results published in patent US9260376B2, “Compounds for use in the treatment of immune related inflammatory disease” (VENANTIUS LIMITED, priority 2011, dated 2016).

Test system: IL2 release from Jurkat cells (T cell line Jurkat 6.1)
Test: Effect of compounds on IL-2 secretion in T lymphocytes (anti-CD3/anti-CD28 stimulated, ELISA)
Assay type: cell-based
Conditions: control inhibitors; plates 2 and 3
Method: The T cell line Jurkat 6.1 (ATCC) was used. Cells were pre-treated for 30 min with 1 μM or 10 μM of the respective compound and then stimulated with plate-bound anti-CD3 (BD Pharmingen) and anti-CD28 (AnCell). DMSO was used as vehicle control. […] After 24 hs the supernatant was collected and IL-2 secretion was measured by ELISA.
Compounds were prepared by dissolution in DMSO to yield final concentrations of 1 and 10 μg/ml

Compound `CN[C@@H]1C[C@H]2O[C@@](C)([C@@H]1OC)n1c3ccccc3c3c4c(c5c6ccccc6n2c5c31)C(=O)NC4` [Stauros] has an IL-2 pg/ml of 117.75 pg/mL.
